40 compounds from patent US10479784B2, “Substituted pyrazin-2-amines as inhibitors of ATR kinase” (Vertex Pharmaceuticals Incorporated, priority 2008, dated 2019) can be followed below.

SMILES strings stand for the structures. Bounds are passed on as bounds.

In the test the target is full-length ATR (Homo sapiens (Human), UniProt Q13535). The test is described as follows: ATR Inhibition Assay (radioactive-phosphate incorporation). It counts as biochemical. The note with it: read-out: ATR Ki. The method in brief:
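Ki(app) was derived by non-linear regression of background-corrected initial rates of 33P incorporation into an 800 μM target peptide, read by phosphocellulose filter scintillation counting. Reaction conditions: 5 nM full-length ATR, 10 μM [γ-33P]ATP, pH 7.5 Tris buffer with MgCl2 and DTT, 25 °C, 10-min preincubation, 24 h run.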

Sequence of full-length ATR (Q13535 whole entry): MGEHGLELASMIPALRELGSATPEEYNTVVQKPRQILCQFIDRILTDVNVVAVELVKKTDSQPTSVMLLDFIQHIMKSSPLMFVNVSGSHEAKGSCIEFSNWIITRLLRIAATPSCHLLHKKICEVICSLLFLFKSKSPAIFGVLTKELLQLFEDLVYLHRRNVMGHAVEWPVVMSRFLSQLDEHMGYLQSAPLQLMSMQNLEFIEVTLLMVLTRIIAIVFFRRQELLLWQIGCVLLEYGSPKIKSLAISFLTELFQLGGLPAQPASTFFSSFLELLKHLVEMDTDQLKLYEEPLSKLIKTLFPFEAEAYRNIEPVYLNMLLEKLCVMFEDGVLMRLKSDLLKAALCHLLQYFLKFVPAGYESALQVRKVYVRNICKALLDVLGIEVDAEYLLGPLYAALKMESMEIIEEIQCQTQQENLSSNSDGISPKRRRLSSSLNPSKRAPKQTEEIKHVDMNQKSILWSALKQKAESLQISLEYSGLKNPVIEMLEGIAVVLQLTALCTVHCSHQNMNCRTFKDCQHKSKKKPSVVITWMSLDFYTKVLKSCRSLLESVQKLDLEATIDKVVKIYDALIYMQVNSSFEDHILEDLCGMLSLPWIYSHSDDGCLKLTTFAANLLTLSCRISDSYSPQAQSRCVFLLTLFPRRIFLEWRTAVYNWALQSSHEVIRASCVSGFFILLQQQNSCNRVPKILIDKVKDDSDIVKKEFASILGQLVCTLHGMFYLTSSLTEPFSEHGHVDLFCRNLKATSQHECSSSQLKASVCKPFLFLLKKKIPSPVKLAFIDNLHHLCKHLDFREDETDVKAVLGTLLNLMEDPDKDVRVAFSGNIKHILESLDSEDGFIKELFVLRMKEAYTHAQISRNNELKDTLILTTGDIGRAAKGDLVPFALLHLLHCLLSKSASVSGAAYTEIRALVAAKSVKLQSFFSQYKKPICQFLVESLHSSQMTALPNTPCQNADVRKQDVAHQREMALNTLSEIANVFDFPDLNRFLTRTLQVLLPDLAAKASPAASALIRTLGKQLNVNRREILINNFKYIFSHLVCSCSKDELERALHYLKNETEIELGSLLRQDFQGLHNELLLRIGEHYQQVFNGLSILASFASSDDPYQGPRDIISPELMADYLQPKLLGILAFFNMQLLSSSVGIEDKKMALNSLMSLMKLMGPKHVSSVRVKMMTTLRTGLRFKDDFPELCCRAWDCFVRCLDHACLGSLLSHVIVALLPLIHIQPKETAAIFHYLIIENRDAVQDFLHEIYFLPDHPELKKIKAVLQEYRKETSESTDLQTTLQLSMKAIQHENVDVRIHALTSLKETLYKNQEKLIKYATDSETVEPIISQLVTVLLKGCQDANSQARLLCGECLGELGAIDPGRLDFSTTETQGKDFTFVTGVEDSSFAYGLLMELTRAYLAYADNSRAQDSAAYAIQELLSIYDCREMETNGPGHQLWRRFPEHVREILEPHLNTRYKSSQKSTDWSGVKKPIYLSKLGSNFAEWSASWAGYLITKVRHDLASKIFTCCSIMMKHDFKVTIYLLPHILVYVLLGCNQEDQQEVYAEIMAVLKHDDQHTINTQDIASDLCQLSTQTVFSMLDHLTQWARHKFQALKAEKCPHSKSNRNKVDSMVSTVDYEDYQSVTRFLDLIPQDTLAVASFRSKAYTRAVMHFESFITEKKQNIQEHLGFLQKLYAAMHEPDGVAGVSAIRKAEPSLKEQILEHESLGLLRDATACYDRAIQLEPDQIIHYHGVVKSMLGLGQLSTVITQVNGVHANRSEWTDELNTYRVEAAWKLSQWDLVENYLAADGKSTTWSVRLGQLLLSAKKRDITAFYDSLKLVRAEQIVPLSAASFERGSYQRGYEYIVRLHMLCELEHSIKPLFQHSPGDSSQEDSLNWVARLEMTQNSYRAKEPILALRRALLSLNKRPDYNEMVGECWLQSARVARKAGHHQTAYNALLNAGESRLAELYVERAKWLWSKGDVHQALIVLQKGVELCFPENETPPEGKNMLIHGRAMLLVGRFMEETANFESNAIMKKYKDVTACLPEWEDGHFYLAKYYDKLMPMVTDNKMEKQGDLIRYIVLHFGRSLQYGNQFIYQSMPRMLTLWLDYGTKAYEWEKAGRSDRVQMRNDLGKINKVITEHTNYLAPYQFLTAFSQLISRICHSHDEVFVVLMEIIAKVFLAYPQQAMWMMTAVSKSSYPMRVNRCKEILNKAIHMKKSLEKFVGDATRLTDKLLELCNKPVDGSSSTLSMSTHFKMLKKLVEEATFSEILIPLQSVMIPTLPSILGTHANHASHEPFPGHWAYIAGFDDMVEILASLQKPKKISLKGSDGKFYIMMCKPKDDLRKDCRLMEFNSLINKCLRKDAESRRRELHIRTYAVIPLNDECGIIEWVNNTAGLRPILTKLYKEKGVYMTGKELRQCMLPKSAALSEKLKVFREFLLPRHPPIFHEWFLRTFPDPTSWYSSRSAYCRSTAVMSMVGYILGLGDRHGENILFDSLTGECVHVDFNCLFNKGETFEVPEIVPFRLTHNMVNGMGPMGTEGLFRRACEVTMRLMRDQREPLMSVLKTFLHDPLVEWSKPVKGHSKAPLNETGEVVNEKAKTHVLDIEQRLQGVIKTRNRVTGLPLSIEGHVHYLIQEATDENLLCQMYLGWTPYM

As to `Nc1ncc(-c2ccncc2)nc1-c1nnc(-c2cccs2)o1` [IA-141, 5-(4-pyridyl)-3-[5-(2-thienyl)-1,3,4-oxadiazol-2-yl]pyrazin-2-amine], the Ki (as a rule, a measure of affinity in units of concentration, obtained from inhibition or displacement) was ≤ 10 nM. As to `CCCNCc1ccc(-c2cc(-c3nc(-c4ccc(S(=O)(=O)C(C)C)cc4)cnc3N)on2)cc1` [IIA-6, 5-(4-(isopropylsulfonyl)phenyl)-3-(3-(4-((propylamino)methyl)phenyl)isoxazol-5-yl)pyrazin-2-amine], the Ki was ≤ 10 nM.

On to `COc1cccc(-c2nnc(-c3nc(-c4ccc(C(=O)N(C)C)cc4)cnc3N)o2)c1` [IA-195, 4-[5-amino-6-[5-(3-methoxyphenyl)-1,3,4-oxadiazol-2-yl]pyrazin-2-yl]-N,N-dimethyl-benzamide], for which the Ki is 10 to 100 nM. Take `COC(=O)N1CCCN(C(=O)c2ccc(-c3cnc(N)c(-c4nnc(-c5ccccc5)o4)n3)cc2)CC1` [IA-34]: the Ki is ≤ 10 nM. In the case of `Nc1ncc(-c2ccc(C(=O)N3CCC3)cc2)nc1C(=O)Nc1ccccc1` [Compound I-72, 3-amino-6-(4-(azetidine-1-carbonyl)phenyl)-N-phenylpyrazine-2-carboxamide], the Ki was in the range of 10 to 100 nM. Consider `CNCc1ccc(-c2nnc(-c3nc(-c4ccc(S(=O)(=O)C(C)CCOC)cc4)cnc3N)o2)cc1` (stereo not shown) [IA-330, 5-[4-(3-methoxy-1-methyl-propyl)sulfonylphenyl]-3-[5-[4-(methylaminomethyl)phenyl]-1,3,4-oxadiazol-2-yl]pyrazin-2-amine], for which the Ki is ≤ 10 nM.

`CN(C)C(=O)c1ccc(-c2cnc(N)c(-c3nnc(-c4ccnc(N)c4)o3)n2)cc1` [IA-223, 4-[5-amino-6-[5-(2-amino-4-pyridyl)-1,3,4-oxadiazol-2-yl]pyrazin-2-yl]-N,N-dimethyl-benzamide]: the Ki is 10 to 100 nM. Turning to `CC(C)[S+]([O-])c1ccc(-c2cnc(N)c(-c3nnc(-c4ccccc4)o3)n2)cc1` (stereo not shown) [IA-90, 5-(4-isopropylsulfinylphenyl)-3-(5-phenyl-1,3,4-oxadiazol-2-yl)pyrazin-2-amine], the Ki was ≤ 10 nM. Consider `CC(C)S(=O)(=O)c1ccc(-c2cnc(N)c(-c3nnc(-c4ccc(C(C)(C)N)cc4)o3)n2)cc1` [IA-311, 3-[5-[4-(1-amino-1-methyl-ethyl)phenyl]-1,3,4-oxadiazol-2-yl]-5-(4-isopropylsulfonylphenyl)pyrazin-2-amine], for which the Ki is ≤ 10 nM. Regarding `COc1ccccc1-c1nnc(-c2nc(-c3ccc(C(=O)N(C)C)cc3)cnc2N)o1` [IA-242, 4-[5-amino-6-[5-(2-methoxyphenyl)-1,3,4-oxadiazol-2-yl]pyrazin-2-yl]-N,N-dimethyl-benzamide], the Ki is ≤ 10 nM. With `CCNCc1ccc(-c2cc(-c3nc(-c4ccc(S(=O)(=O)C(C)C)cc4)cnc3N)on2)cc1` [IIA-10, 3-[3-[4-(ethylaminomethyl)phenyl]isoxazol-5-yl]-5-(4-isopropylsulfonylphenyl)pyrazin-2-amine], the Ki was ≤ 10 nM.

As to `CC(C)S(=O)(=O)c1ccc(-c2cnc(N)c(-c3nnc(-c4cccc([C@@H](C)N)c4)o3)n2)cc1` [IA-80, 3-[5-[3-[(1R)-1-aminoethyl]phenyl]-1,3,4-oxadiazol-2-yl]-5-(4-isopropylsulfonylphenyl)pyrazin-2-amine], the Ki was ≤ 10 nM. The result for `N#Cc1ccc(-c2cnc(N)c(C(=O)Nc3ccccc3)n2)cc1` [Compound I-21, 3-amino-6-(4-cyanophenyl)-N-phenylpyrazine-2-carboxamide] reads 10 to 100 nM; that for `CC(C)S(=O)(=O)c1ccc(-c2cnc(N)c(-c3nnc(-c4ccc(CN(C)C)cc4)o3)n2)cc1` [IA-243, 3-[5-[4-(dimethylaminomethyl)phenyl]-1,3,4-oxadiazol-2-yl]-5-(4-isopropylsulfonylphenyl)pyrazin-2-amine], ≤ 10 nM; that for `CNCc1ccc(-c2nnc(-c3nc(-c4ccc(S(C)(=O)=O)cc4)cnc3N)o2)cc1` [IA-288, 3-[5-[4-(methylaminomethyl)phenyl]-1,3,4-oxadiazol-2-yl]-5-(4-methylsulfonylphenyl)pyrazin-2-amine], ≤ 10 nM. Under `CC(C)S(=O)(=O)c1ccc(-c2cnc(N)c(-c3nnc(C(=O)NCC4CCCNC4)o3)n2)cc1` (stereo not shown) [IA-255, 5-[3-amino-6-(4-isopropylsulfonylphenyl)pyrazin-2-yl]-N-(3-piperidylmethyl)-1,3,4-oxadiazole-2-carboxamide] stands 100 to 5000 nM.

Take `COc1ccncc1NC(=O)c1nc(-c2ccc(S(C)(=O)=O)cc2)cnc1N` [VII-9]: the inhibition constant (Ki) was ≤ 10 nM.

On to `COc1ccccc1NC(=O)c1nc(-c2ccc3[nH]ccc3c2)cnc1N` [Compound I-29, 3-amino-6-(1H-indol-5-yl)-N-(2-methoxyphenyl)pyrazine-2-carboxamide], for which the Ki lay in the range of 10 to 100 nM. For `Nc1ncc(-c2cnc(C(=O)N3CCCNCC3)nc2)nc1-c1nnc(-c2ccccc2)o1` [IA-37], the Ki was in the range of 10 to 100 nM. Under `N#Cc1ccncc1-c1cnc(N)c(-c2nnc(-c3ccccc3)o2)n1` [IA-153, 3-(5-amino-6-(5-phenyl-1,3,4-oxadiazol-2-yl)pyrazin-2-yl)pyridine-4-carbonitrile] stands 10 to 100 nM; under `CN(C)C(=O)c1ccc(-c2cnc(N)c(-c3nnc(-c4cccc(F)c4)o3)n2)cc1` [IA-40, 4-(5-amino-6-(5-(3-fluorophenyl)-1,3,4-oxadiazol-2-yl)pyrazin-2-yl)-N,N-dimethylbenzamide], 10 to 100 nM; under `Nc1ncc(-c2ccc(O)nc2)nc1C(=O)Nc1ccccc1` [Compound I-32, 3-amino-6-(6-hydroxypyridin-3-yl)-N-phenylpyrazine-2-carboxamide], 10 to 100 nM. Regarding `CCC(C)S(=O)(=O)c1ccc(-c2cnc(N)c(-c3nnc(-c4ccc(CNC)cc4F)o3)n2)cc1` (stereo not shown) [IA-338, 3-[5-[2-fluoro-4-(methylaminomethyl)phenyl]-1,3,4-oxadiazol-2-yl]-5-(4-sec-butylsulfonylphenyl)pyrazin-2-amine], the Ki is ≤ 10 nM. `CNCc1ccc(-c2nnc(-c3nc(-c4ccc(S(=O)(=O)C(C)C)c(F)c4)cnc3N)o2)c(F)c1` [IA-321, 5-(3-fluoro-4-isopropylsulfonyl-phenyl)-3-[5-[2-fluoro-4-(methylaminomethyl)phenyl]-1,3,4-oxadiazol-2-yl]pyrazin-2-amine]: the Ki was ≤ 10 nM.

Consider `N#Cc1cc(C(=O)N2CCCNCC2)ccc1-c1cnc(N)c(C(=O)Nc2nc3ccccc3[nH]2)n1` [Compound V-2], for which the Ki was ≤ 10 nM. As to `CN(C)c1ccccc1-c1cnc(N)c(-c2nnc(-c3ccccc3)o2)n1` [IA-94, 5-(2-(dimethylamino)phenyl)-3-(5-phenyl-1,3,4-oxadiazol-2-yl)pyrazin-2-amine], the Ki fell in the range of 100 to 5000 nM. Under `Nc1ncc(-c2cccnc2)nc1-c1nc2ccccc2[nH]1` [Compound I-121, 3-(1H-benzo[d]imidazol-2-yl)-5-(pyridin-3-yl)pyrazin-2-amine] stands 10 to 100 nM; under `Nc1ncc(-c2cccc3ncccc23)nc1-c1nnc(-c2ccccc2)o1` [IA-260, 3-(5-phenyl-1,3,4-oxadiazol-2-yl)-5-(5-quinolyl)pyrazin-2-amine], 10 to 100 nM; under `COC1CN(C(=O)c2ccc(-c3cnc(N)c(C(=O)Nc4ccccc4)n3)cc2)C1` [Compound I-44, 3-amino-6-(4-(3-methoxyazetidine-1-carbonyl)phenyl)-N-phenylpyrazine-2-carboxamide], 10 to 100 nM.

`C#Cc1ccccc1-c1cnc(N)c(-c2nnc(-c3ccccc3)o2)n1` [IA-194, 5-(2-ethynylphenyl)-3-(5-phenyl-1,3,4-oxadiazol-2-yl)pyrazin-2-amine]: the Ki was in the range of 100 to 5000 nM. `Nc1ncc(-c2ccc(F)cc2)nc1C(=O)Nc1ccccc1` [Compound I-4, 3-amino-6-(4-fluorophenyl)-N-phenylpyrazine-2-carboxamide]: the Ki lay in the range of 100 to 5000 nM. As to `CN(C)C(=O)c1ccc(-c2cnc(N)c(-c3nnc(NC(=O)c4ccccc4)o3)n2)cc1` [IA-287, 4-[5-amino-6-(5-benzamido-1,3,4-oxadiazol-2-yl)pyrazin-2-yl]-N,N-dimethyl-benzamide], the Ki is 100 to 5000 nM. For `CNCc1ccc(-c2nnc(-c3nc(-c4ccc(C(=O)N(C)C)cc4)cnc3N)o2)cc1` [IA-281, 4-[5-amino-6-[5-[4-(methylaminomethyl)phenyl]-1,3,4-oxadiazol-2-yl]pyrazin-2-yl]-N,N-dimethyl-benzamide], the Ki is ≤ 10 nM. As to `CCSc1ccccc1-c1cnc(N)c(-c2nnc(-c3ccccc3)o2)n1` [IA-184, 5-(2-ethylsulfanylphenyl)-3-(5-phenyl-1,3,4-oxadiazol-2-yl)pyrazin-2-amine], the Ki fell in the range of 10 to 100 nM. With `Nc1ncc(-c2ccc(S(=O)(=O)C3CCNCC3)cc2)nc1-c1nnc(-c2ccccc2)o1` [IA-197, 3-(5-phenyl-1,3,4-oxadiazol-2-yl)-5-[4-(4-piperidylsulfonyl)phenyl]pyrazin-2-amine], the Ki was ≤ 10 nM. Regarding `Nc1ncc(-c2ccc(C(=O)N3CCCNCC3)cc2)nc1C(=O)Nc1nc2ccccc2s1` [Compound V-9], the Ki was in the range of 10 to 100 nM.

As for `Nc1ncc(-c2cccc(C(=O)N3CCOCC3)c2)nc1C(=O)Nc1ccccc1` [Compound I-20, 3-amino-6-(3-(morpholine-4-carbonyl)phenyl)-N-phenylpyrazine-2-carboxamide], the Ki is 10 to 100 nM. Regarding `CC(C)S(=O)(=O)c1ccc(-c2cnc(N)c(-c3nnc(-c4ccc(CO)cc4)o3)n2)cc1` [IA-238, [4-[5-[3-amino-6-(4-isopropylsulfonylphenyl)pyrazin-2-yl]-1,3,4-oxadiazol-2-yl]phenyl]methanol], the Ki was ≤ 10 nM.

Turning to `CC(CCO)S(=O)(=O)c1ccc(-c2cnc(N)c(-c3nnc(-c4ccccc4F)o3)n2)cc1` (stereo not shown) [IA-339, 3-[4-[5-amino-6-[5-(2-fluorophenyl)-1,3,4-oxadiazol-2-yl]pyrazin-2-yl]phenyl]sulfonylbutan-1-ol], the Ki was ≤ 10 nM. Regarding `CNCc1ccc(-c2nnc(-c3nc(-c4ccc(S(=O)(=O)C(C)C)cc4C(F)F)cnc3N)o2)cc1` [IA-322, 5-[2-(difluoromethyl)-4-isopropylsulfonyl-phenyl]-3-[5-[4-(methylaminomethyl)phenyl]-1,3,4-oxadiazol-2-yl]pyrazin-2-amine], the Ki is ≤ 10 nM.
